This passage reports TGI results from PubChem BioAssay (NCI).

Assay in all cases: NCI-60 cell line screen, 48 h
Assay [1] has as its system ACHN renal.
The test system of assay [2] is HT29 colon.
Assay [3] deals with OVCAR-3 ovarian.
Assay [4] concerns HOP-92 NSCLC.
For assay [5], the system named is SN12C renal.
Assay [6] concerns CCRF-CEM leukemia.
The subject of assay [7] is 786-0 renal.
The test system of assay [8] is SF-295 CNS.
Assay [9] has as its system HOP-62 NSCLC.
Assay [10] deals with MDA-N.
In assay [11] the test system is BT-549 breast.

Values joined by “and” are separate entries in the source; they are usually repeats but may differ in a detail not shown here. Equal entries are not always repeated.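 The compound was tested at five concentrations on cells cultured in 96-well plates, with a 48-hour exposure period. TGI: concentration producing complete growth inhibition.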

As to `Cc1ccc(S(=O)(=O)C(C#N)c2nc3ccccc3nc2-n2cccn2)cc1` (centres undefined), the TGI in assay [1], in assay [2], in assay [3], in assay [4], in [5] and in assay [6] was over 100 µM each time. The TGI in assay [7] and in assay [8] was over 100 µM each time.

For the molecule `O=C1c2cc3c(cc2CC12Cc1cc4c(cc1C2)CCC4)CCC3`, the TGI in assay [9], in assay [1], in [2], in assay [3], in assay [4] and in assay [5] was over 100 µM throughout. Also, the TGI in [10], in [6], in assay [7] and in assay [8] was over 100 µM in each case.

For the molecule `CCOC(=O)C1C/C(C)=C(/C)SCCCS1` (centres undefined), the TGI in [9], in assay [1], in assay [2], in [3], in [4] and in [5] was over 100 µM throughout. Also, the TGI in assay [10], in assay [7] and in assay [8] was over 100 µM in each case.

As to `COc1cc(C2C(Cl)C(=O)N2c2ccc(Br)cc2)cc(I)c1O` (centres undefined), the TGI in assay [9], in assay [1], in assay [2], in assay [3], in [5] and in assay [10] was over 100 µM each time. In addition, the TGI in assay [6], in assay [7], in assay [11] and in assay [8] was over 100 µM each time.

As for `O=C1CCC2(CC1)Cc1ccccc1C2O` (centres undefined), the TGI in assay [9], in [1], in [2], in assay [5], in assay [10] and in [6] was over 100 µM throughout. Besides, the TGI in assay [7], in assay [11] and in assay [8] was over 100 µM throughout.

On to `Cc1ccc2ccccc2c1CC1S(=O)(=O)OCCOS1(=O)=O`, for which the TGI in assay [9] worked out at 28.5 µM; in assay [1], 28.8 µM; in [2] it was 27.1 µM; in [3], 19.5 µM; in [5] it was 23.7 µM; in assay [10], 22.2 µM. Further, the TGI amounted to 27.1 µM in assay [6], 30.3 µM in [7], 25.7 µM in assay [11] and 27.4 µM in [8].

As for `CSc1c(C(C)=O)c(O)n(-c2ccc(Cl)cc2)c(=O)c1C#N`, the TGI in assay [2] is over 100 µM; in [3], over 100 µM; in assay [5], over 100 µM; in [10], over 100 µM; in [6], 54.3 µM; in [7] it was over 100 µM. Also, the TGI in assay [11] was over 100 µM.

`O=C1CCSSCCC(=O)Nc2ccccc2N1`: the TGI in assay [9], in [1], in assay [2], in assay [3], in assay [4] and in [5] was over 100 µM throughout. For the same molecule, the TGI in assay [6], in [7], in assay [11] and in assay [8] was over 100 µM each time.

Regarding `C=C[C@]1(C)CC[C@]2(C)C(CC[C@@]3(C)C2C[C@H](O)[C@H](O)[C@@]3(C)O)C1` (some centres undefined), the TGI in assay [9], in [1], in assay [2], in [3], in assay [5] and in assay [10] was over 100 µM in each case. Further, the TGI in assay [6], in [7], in assay [11] and in [8] was over 100 µM each time.

As for `CC1=NN(c2nc(N)nc(/C(C#N)=C/c3ccncc3)n2)C(C)(C)C1`, the TGI in [9], in [1], in assay [2], in [4], in [6] and in [7] was over 100 µM throughout. Also, the TGI in assay [11] and in assay [8] was over 100 µM throughout.

Regarding `CC(C)(CN1CCCCC1)C(=O)CC(SCCS(=O)(=O)O)c1ccc(Br)cc1` (centres undefined), the TGI in [9] was determined as 18 µM; in assay [1] it was 3.1 µM; in [2] it was 3.72 µM; in assay [4], 2.08 µM; in assay [5] it was 2.97 µM; in assay [7] it was 2.71 µM. Moreover, in [8], the TGI worked out at 16.7 µM.

Turning to `CCOC(=O)/C=C1\Nc2ccccc2C12CCc1c([nH]c3ccccc13)C2C(=O)OCC` (centres undefined), the TGI is over 100 µM in [9]; over 100 µM in [1]; over 100 µM in assay [2]; over 100 µM in assay [3]; over 100 µM in [5]; 81 µM in assay [10]. Further, the TGI in assay [6], in [7], in [11] and in assay [8] was over 100 µM in each case.

On to `CC(=O)O[C@]12CCCCCCC1C1(O)C(O)CCC[C@H]12` (some centres undefined), for which the TGI in assay [9], in [1], in [2], in [5], in assay [6] and in [7] was over 100 µM each time. Moreover, the TGI in assay [8] was over 100 µM.

With `COc1cc(C(=O)Nc2nnc(S(N)(=O)=O)s2)cc(OC)c1OC`, the TGI in [9], in assay [1], in [3], in assay [4], in assay [5] and in assay [10] was over 100 µM in each case. In addition, the TGI in assay [7], in [11] and in assay [8] was over 100 µM each time.

In the case of `Cc1ccc2c(c1)c(=O)c1c(NCCN(C)C)ccc3nnn2c31`, the TGI in [9] was 21.5 µM; in assay [1], 17.7 µM; in assay [2] it was 12 µM; in assay [3] it was over 42.8 µM; in assay [4], 11.5 µM; in assay [5], over 42 µM. Besides, the values for the TGI in assay [6], in [7] and in assay [8] were 17.9 µM, 15.9 µM and 15.4 µM, respectively.

As for `c1ccc(C2=NN3CN(N2)c2ccccc2OCCCOc2ccccc23)cc1`, the TGI in assay [9], in [1], in assay [2], in [3], in [5] and in [6] was over 100 µM each time. Also, the TGI in [7] and in assay [8] was over 100 µM in each case.

Consider `CC(=O)N(C(C)=O)n1c(Cc2ccc(Cl)cc2)nn(C(C)=O)c1=O`, for which the TGI in assay [9], in assay [1], in [2], in assay [3], in assay [5] and in assay [10] was over 100 µM in each case. The TGI in [6], in [7], in assay [11] and in assay [8] was over 100 µM each time.

As for `C#CC(C)(C)Oc1cc(OC)c2c(=O)c3ccccc3n(C)c2c1`, the TGI in assay [9] was over 100 µM; in assay [1], 64.6 µM; in assay [2], over 100 µM; in assay [5] it was 49.9 µM; in [10] it was 31.1 µM; in [6] it was 27.5 µM. Besides, the values for the TGI in assay [7] and in [8] were over 100 µM and 51.8 µM, respectively.

On to `O=C1c2cc(Cl)ccc2-n2c(noc2=O)C2CSCN12` (centres undefined), for which the TGI in [9], in [1], in assay [2], in assay [3], in [5] and in [10] was over 100 µM each time. In addition, the TGI in assay [6], in [7], in assay [11] and in [8] was over 100 µM throughout.

In the case of `CCCCN(CCCC)C(=NCc1ccccc1)NC#N`, the TGI in assay [9] turned out to be 55.5 µM; in assay [1], 65.9 µM; in assay [2], 30.1 µM; in assay [3] it was 35.3 µM; in assay [4], 33.4 µM; in assay [5] it was 44.4 µM. For the same molecule, the TGI in assay [6] stood at 37.1 µM; in [7], 47 µM; in assay [8] it was 35.6 µM.

With `NC1=NS(=O)(=O)N=C(N)C1=Cc1ccc([N+](=O)[O-])o1`, the TGI in [1] came to 30.6 µM; in [2], 34 µM; in assay [3], 32.4 µM; in [4], 26.7 µM; in assay [5], 30.1 µM; in [6], 92.8 µM. Further, the TGI in [7] turned out to be 30.8 µM; in assay [8] it was 61.8 µM.

Regarding `Brc1ccc(N2C[N+](c3ccc(Br)cc3)=NC(c3ccccc3)=N2)cc1`, the TGI in [9] was 31.2 µM and > 100 µM; in [1] it was 26.4 µM and > 100 µM; in assay [2], 27.8 µM and > 100 µM; in [4], 34.1 µM and > 100 µM; in assay [5], 33.3 µM and > 100 µM; in assay [7] it was 29.5 µM and > 100 µM. Besides, in assay [8], the TGI is 29.1 µM and > 100 µM.

In the case of `Oc1c2cccc1Cc1cccc3c1OCCOCCOCCOCCOc1c(cccc1Cc1cccc(c1O)C3)C2`, the TGI in assay [9], in assay [1], in [2], in assay [3], in [4] and in assay [5] was over 100 µM in each case. Besides, the TGI in assay [6], in assay [7], in [11] and in [8] was over 100 µM throughout.

Regarding `CCCCCCCCCCCCC(=O)NCC(=O)NC(Cc1ccccc1)C(=O)Oc1ccc([N+](=O)[O-])cc1` (centres undefined), the TGI in assay [9], in [1], in [2], in [3], in assay [5] and in assay [10] was over 100 µM in each case. Further, the TGI in assay [6] is 68.7 µM; in assay [7] it was over 100 µM; in [11] it was over 100 µM; in assay [8], over 100 µM.

Turning to `O=C1CCC2(CCC(=O)NC2=O)C(=O)N1`, the TGI in assay [9], in assay [1], in assay [2], in assay [3], in assay [5] and in [6] was over 100 µM in each case. The TGI in assay [7] and in assay [8] was over 100 µM each time.

For the molecule `CC(C)=CC(=O)O[C@@H]1CC(C)(C)CC2C3=CCC4[C@]56CC[C@](O)(OC5)C(C)(C)C6CC[C@@]4(C)C3(C)CC[C@]21C(=O)O` (some centres undefined), the TGI in assay [9] is over 100 µM; in assay [1] it was 82.8 µM; in assay [2], over 100 µM; in assay [3], over 100 µM; in [5] it was over 100 µM; in assay [10], over 100 µM. The TGI in assay [6], in assay [7], in assay [11] and in assay [8] was over 100 µM each time.

As to `O=C(c1cccs1)N(C(=S)N1CCN(c2ccccc2)CC1)c1ccccc1`, the TGI in assay [9], in [1], in [2], in assay [3], in assay [4] and in [5] was over 100 µM in each case. The TGI in assay [6], in [7] and in assay [8] was over 100 µM in each case.

As to `C=C(CCOC)CCC1CCCCC(=C)C1=O` (centres undefined), the TGI in assay [9], in [1], in assay [2], in assay [3], in assay [5] and in assay [10] was over 100 µM in each case. Further, the TGI in assay [6], in assay [7], in assay [11] and in assay [8] was over 100 µM throughout.

In the case of `COc1ccc(/C=N/Nc2[nH]c(=S)nc3[nH]ncc23)cc1`, the TGI was 77.9 µM in [9]; over 100 µM in assay [1]; over 100 µM in assay [2]; over 100 µM in assay [3]; over 100 µM in assay [5]; over 100 µM in assay [6]. The TGI in [7], in [11] and in [8] was over 100 µM in each case.
